Here are results for 13 compounds from ChEMBL document CHEMBL1150389, “Synthesis and evaluation of heteroaromatic 6,7-diaryl-2,3,8,8a-tetrahydroindolizin-5(1H)-ones for cytotoxicity against the HCT-116 colon cancer cell line” (Bioorg Med Chem Lett, 2008).

The subject of the test is HCT-116. In words: Cytotoxicity against human HCT116 cells. The format is functional, cell-based.
On to `CSc1ccc(C2=C(c3cccs3)C(=O)N3CCCC3C2)cc1` (stereo not drawn), for which the IC50 was 270 nM.

In turn, `COc1ccc(C2=C(c3ccsc3)C(=O)N3CCCC3C2)cc1` (stereo not drawn) displayed an IC50 of 1500 nM.

In turn, `CSc1ccc(C2=C(c3ccco3)C(=O)N3CCCC3C2)cc1` (stereo not drawn) had an IC50 of 3000 nM.

Compound `CSc1ccc(C2=C(c3ccsc3)C(=O)N3CCCC3C2)cc1` (stereo not drawn) yielded a half-inhibitory concentration (IC50) of 600 nM.

With `CSc1ccc(C2=C(c3ccoc3)C(=O)N3CCCC3C2)cc1` (stereo not drawn), the IC50 came to 1100 nM.

`COc1ccc(C2=C(c3cccnc3)C(=O)N3CCCC3C2)cc1` (stereo not drawn) showed an IC50 of 79000 nM.

Take `COc1ccc(C2=C(c3ccco3)C(=O)N3CCCC3C2)cc1` (stereo not drawn): 6000 nM corresponded to half-maximal inhibition (IC50).

`CSc1ccc(C2=C(c3ccncc3)C(=O)N3CCCC3C2)cc1` (stereo not drawn) yielded an IC50 of 6000 nM.

`COc1ccc(C2=C(c3ccncc3)C(=O)N3CCCC3C2)cc1` (stereo not drawn) yielded an IC50 of 19000 nM.

Consider `COc1ccc(C2=C(c3ccccn3)C(=O)N3CCCC3C2)cc1` (stereo not drawn), for which the midpoint of inhibition, the IC50, lay at 104000 nM.

`COc1ccc(C2=C(c3ccoc3)C(=O)N3CCCC3C2)cc1` (stereo not drawn) yielded an IC50 of 3000 nM.

Regarding `COc1ccc(C2=C(c3cccs3)C(=O)N3CCCC3C2)cc1` (stereo not drawn), the IC50 was 5000 nM.

`CSc1ccc(C2=C(c3ccccc3)C(=O)N3CCCC3C2)cc1` (stereo not drawn) gave an IC50 of 1000 nM.
